Reference: patent publication US20070117770A1, “Human ribosomal DNA (rDNA) and ribosomal RNA (rRNA) nucleic acids and uses thereof” (Cylene Pharmaceuticals, Inc., priority 2005, published 2007)

Key:
Assay in all cases: Protein kinase inhibition assay
Type in all cases: biochemical
EGFR(h) = EGFR(h) (Homo sapiens, UniProt P00533); settings: read-out: percent residual activity of EGFR(h)
Protocol: (§1) Certain compounds were tested for activity in protein kinase inhibition assays. All substrates were dissolved and diluted to working stocks in de-ionized water, apart from histone H1 (10× working stock in 20 mM MOPS pH 7.0), PDKtide (10× working stock in 50 mM Tris pH 7.0) ATF2 (which is typically stored at a 20× working stock in 50 mM Tris pH 7.5, 150 mM NaCl, 0.1 mM EGTA, 0.03% Brij-35, 50% glycerol, 1 mM benzamidine, 0.2 mM PMSF and 0.1% R-mercaptoethanol), KKLNRTLSFAEPG (SEQ ID NO:203) and RRRLSFAEPG (SEQ ID NO:204) (50 mM HEPES pH 7.4) and GGEEEEYFELVKKKK (SEQ ID NO:205) (20 mM MOPS pH 7.0). All kinases were pre-diluted to a 10× working concentration prior to addition into the assay. The composition of the dilution buffer for each kinase is detailed below.
(§2) In a final reaction volume of 25 μl, EGFR (h) (5-10 mU) is incubated with 8 mM MOPS pH 7.0, 0.2 mM EDTA, 10 mM MnCl2, 0.1 mg/ml poly(Glu, Tyr) 4:1, 10 mM MgAcetate and [gamma-33P-ATP] (specific activity approx. 500 cpm/pmol, concentration as required). The reaction is initiated by the addition of the MgATP mix. After incubation for 40 minutes at room temperature, the reaction is stopped by the addition of 5 μl of a 3% phosphoric acid solution. 10 μl of the reaction is then spotted onto a Filtermat A and washed three times for 5 minutes in 75 mM phosphoric acid and once in methanol prior to drying and scintillation counting.

CDK6/cyclinD3(h) = CDK6/cyclinD3(h) (Homo sapiens, UniProt Q00534); settings: read-out: percent residual activity of CDK6/cyclinD3(h)
Protocol: as §1
as §2, with “CDK6/cyclinD3” for “EGFR”, “EDTA,” for “EDTA, 10 mM MnCl2,”, “histone H1,” for “poly(Glu, Tyr) 4:1,”, “MGATP” for “MgATP”, “P30 filtermat” for “Filtermat A”

EphA2(h) = EphA2(h) (Homo sapiens, UniProt P29317); settings: read-out: percent residual activity of EphA2(h)
Protocol: as §1
as §2, with “EphA2” for “EGFR”, “EDTA,” for “EDTA, 10 mM MnCl2,”

Pim-1(h) = Pim-1(h) (Homo sapiens, UniProt P11309); settings: read-out: percent residual activity of Pim-1(h)
Protocol: as §1
as §2, with “Pim-1” for “EGFR”, “100 μM KKRNRTLTV (SEQ ID NO:219),” for “10 mM MnCl2, 0.1 mg/ml poly(Glu, Tyr) 4:1,”, “P30 filtermat” for “Filtermat A”

cKit(h) = cKit(h) (Homo sapiens, UniProt P10721); settings: read-out: percent residual activity of cKit(h)
Protocol: as §1
as §2, with “cKit” for “EGFR”

BRK(h) = BRK(h) (Homo sapiens, UniProt Q13882); settings: read-out: percent residual activity of BRK(h)
Protocol: as §1
as §2, with “μl, BRK” for “μl, EGFR”, “EDTA, 5” for “EDTA, 10”, “mg/ml poly (Glu,” for “mg/ml poly(Glu,”

Pim-1(h), sequence (P11309 whole entry): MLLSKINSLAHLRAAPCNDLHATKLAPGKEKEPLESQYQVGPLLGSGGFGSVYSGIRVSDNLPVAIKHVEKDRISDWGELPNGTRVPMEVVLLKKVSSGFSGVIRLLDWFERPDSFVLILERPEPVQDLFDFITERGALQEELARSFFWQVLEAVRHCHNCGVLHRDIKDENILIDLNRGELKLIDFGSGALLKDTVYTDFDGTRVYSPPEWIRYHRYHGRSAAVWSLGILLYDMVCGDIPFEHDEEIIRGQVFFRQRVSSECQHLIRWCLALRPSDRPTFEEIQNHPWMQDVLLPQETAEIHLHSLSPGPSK
EGFR(h), sequence (P00533 25-1210): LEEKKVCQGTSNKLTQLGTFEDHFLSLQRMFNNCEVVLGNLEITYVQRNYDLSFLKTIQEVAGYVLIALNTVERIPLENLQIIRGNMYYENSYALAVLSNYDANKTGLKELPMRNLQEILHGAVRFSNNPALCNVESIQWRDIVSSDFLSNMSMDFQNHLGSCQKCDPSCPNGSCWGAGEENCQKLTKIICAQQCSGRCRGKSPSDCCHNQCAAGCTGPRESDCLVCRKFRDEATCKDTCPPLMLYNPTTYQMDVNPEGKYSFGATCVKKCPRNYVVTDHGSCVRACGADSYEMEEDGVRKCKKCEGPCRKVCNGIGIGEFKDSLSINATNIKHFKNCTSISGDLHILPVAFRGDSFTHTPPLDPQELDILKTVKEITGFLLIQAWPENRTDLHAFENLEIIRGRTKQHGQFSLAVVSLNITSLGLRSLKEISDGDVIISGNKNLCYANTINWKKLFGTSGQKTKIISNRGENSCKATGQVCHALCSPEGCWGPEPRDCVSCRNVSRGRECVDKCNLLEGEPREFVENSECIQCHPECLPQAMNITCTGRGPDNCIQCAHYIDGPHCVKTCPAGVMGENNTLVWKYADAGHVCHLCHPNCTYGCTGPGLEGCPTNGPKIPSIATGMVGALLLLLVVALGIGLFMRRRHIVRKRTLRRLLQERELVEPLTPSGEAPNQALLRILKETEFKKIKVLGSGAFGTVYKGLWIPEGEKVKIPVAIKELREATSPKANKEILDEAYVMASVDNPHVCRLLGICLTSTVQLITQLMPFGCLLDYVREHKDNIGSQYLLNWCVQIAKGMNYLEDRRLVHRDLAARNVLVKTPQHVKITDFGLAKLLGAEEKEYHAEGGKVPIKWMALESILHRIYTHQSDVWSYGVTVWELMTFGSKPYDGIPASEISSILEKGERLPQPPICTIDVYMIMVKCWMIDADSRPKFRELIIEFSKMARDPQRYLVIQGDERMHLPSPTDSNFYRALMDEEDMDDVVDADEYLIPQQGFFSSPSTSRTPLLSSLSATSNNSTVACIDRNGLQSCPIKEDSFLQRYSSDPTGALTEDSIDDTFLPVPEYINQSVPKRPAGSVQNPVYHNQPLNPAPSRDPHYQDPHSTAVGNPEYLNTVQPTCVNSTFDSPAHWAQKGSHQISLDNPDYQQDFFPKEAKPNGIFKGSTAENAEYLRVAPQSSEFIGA
EphA2(h), sequence (P29317 24-976): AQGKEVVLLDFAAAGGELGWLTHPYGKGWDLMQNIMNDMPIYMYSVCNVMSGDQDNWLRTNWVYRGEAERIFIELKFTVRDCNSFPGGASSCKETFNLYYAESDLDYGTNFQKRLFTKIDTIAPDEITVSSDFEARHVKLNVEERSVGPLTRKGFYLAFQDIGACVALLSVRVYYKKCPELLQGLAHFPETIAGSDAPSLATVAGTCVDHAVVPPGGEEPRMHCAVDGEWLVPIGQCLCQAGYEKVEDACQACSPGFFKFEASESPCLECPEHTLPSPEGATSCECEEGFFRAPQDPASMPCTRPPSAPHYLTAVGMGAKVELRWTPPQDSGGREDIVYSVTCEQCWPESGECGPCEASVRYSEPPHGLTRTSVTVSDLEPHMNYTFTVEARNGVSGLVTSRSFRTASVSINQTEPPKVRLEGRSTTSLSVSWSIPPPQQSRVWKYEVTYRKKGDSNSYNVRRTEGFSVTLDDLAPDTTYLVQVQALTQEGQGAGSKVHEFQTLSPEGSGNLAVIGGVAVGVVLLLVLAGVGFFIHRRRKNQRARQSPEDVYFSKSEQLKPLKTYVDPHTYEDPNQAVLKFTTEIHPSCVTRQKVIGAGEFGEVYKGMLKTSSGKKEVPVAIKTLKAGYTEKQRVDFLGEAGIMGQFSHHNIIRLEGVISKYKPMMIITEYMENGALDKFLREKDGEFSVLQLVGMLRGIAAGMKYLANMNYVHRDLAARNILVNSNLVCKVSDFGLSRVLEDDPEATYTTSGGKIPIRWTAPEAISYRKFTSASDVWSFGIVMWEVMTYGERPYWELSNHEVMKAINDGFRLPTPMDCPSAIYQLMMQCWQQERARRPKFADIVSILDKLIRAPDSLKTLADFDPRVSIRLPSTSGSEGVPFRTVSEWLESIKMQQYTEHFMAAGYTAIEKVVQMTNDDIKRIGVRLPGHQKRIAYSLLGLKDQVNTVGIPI
cKit(h), sequence (P10721 26-976): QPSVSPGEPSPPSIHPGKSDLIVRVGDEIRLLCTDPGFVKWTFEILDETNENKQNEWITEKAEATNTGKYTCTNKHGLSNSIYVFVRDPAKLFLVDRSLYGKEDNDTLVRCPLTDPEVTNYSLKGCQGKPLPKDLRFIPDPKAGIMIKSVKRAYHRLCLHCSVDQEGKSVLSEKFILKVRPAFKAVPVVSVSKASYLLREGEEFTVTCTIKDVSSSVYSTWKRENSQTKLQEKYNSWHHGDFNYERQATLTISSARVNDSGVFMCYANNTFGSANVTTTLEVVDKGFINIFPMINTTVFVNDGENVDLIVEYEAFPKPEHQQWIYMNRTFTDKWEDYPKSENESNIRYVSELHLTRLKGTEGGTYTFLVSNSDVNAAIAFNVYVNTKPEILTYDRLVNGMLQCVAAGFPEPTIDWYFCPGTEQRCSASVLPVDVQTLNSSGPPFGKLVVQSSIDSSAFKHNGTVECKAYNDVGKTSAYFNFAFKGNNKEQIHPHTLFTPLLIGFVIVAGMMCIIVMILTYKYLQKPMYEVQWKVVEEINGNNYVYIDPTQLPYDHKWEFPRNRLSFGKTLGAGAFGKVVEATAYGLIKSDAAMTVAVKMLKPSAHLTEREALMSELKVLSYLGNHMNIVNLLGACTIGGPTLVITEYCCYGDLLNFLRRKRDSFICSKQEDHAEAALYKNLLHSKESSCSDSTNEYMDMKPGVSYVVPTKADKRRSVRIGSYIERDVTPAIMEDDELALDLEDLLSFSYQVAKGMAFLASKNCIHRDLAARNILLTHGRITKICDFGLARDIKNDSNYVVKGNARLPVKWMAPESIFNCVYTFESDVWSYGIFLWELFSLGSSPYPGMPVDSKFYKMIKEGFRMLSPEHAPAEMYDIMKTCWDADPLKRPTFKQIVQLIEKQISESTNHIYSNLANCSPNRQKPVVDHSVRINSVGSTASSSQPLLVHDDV
CDK6/cyclinD3(h), sequence (Q00534 whole entry): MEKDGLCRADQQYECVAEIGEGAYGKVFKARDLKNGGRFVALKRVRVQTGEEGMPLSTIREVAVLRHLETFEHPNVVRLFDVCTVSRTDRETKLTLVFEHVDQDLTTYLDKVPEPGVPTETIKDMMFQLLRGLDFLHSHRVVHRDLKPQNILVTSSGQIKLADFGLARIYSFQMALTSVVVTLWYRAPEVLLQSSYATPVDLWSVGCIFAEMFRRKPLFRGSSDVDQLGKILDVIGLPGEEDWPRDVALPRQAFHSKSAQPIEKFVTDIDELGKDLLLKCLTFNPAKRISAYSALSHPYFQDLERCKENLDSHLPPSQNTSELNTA
CDK6/cyclinD3(h), sequence (P30281 whole entry partner): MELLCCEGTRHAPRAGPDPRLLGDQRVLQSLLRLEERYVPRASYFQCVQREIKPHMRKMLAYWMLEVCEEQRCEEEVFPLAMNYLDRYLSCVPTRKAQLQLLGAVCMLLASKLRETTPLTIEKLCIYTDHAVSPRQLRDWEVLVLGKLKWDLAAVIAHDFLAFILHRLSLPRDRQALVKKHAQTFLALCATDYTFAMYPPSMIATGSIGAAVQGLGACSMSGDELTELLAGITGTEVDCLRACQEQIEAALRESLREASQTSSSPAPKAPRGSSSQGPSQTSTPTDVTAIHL
BRK(h), sequence (Q13882 whole entry): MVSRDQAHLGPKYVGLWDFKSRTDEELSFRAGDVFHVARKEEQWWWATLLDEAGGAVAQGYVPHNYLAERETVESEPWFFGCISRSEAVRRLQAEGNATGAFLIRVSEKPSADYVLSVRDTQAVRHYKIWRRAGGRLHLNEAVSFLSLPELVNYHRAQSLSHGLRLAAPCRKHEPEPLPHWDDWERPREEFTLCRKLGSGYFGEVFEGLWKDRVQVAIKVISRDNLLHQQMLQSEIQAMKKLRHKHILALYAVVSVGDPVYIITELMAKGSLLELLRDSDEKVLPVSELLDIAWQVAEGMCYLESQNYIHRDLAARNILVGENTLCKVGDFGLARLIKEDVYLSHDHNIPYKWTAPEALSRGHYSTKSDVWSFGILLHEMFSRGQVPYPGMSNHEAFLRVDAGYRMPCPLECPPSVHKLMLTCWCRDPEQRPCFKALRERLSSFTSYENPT

`CN1CCCC1CCNC(=O)c1cn2c3c(c(N4CCC(c5cnccn5)C4)c(F)cc3c1=O)Oc1cc3ccccc3cc1-2` (stereo not drawn) [Compound A-1] showed a remaining activity at 2.5 µM (EGFR(h)) of 122%, a remaining activity at 2.5 µM (CDK6/cyclinD3(h)) of 85% and a remaining activity at 2.5 µM (EphA2(h)) of 101%. The remaining activity at 2.5 µM (Pim-1(h)) was 30%, the remaining activity at 2.5 µM (cKit(h)) was 111% and the remaining activity at 2.5 µM (BRK(h)) was 131%.

With `CC(=O)N1CCN(c2ccc3c(=O)c(C(=O)NCCN4CCCC4)c4n(C)c5ccccc5n4c3n2)CC1` [Compound B-1] the remaining activity at 2.5 µM (EGFR(h)) was 117%, the remaining activity at 2.5 µM (CDK6/cyclinD3(h)) was 100% and the remaining activity at 2.5 µM (EphA2(h)) was 102%. It also gave a remaining activity at 2.5 µM (Pim-1(h)) of 104%, a remaining activity at 2.5 µM (cKit(h)) of 114% and a remaining activity at 2.5 µM (BRK(h)) of 98%.
